Measurements reported in patent US8791155B2, “Chroman derivatives” (Edison Pharmaceuticals, Inc., priority 2003, dated 2014).

molecular target: T1, porcine leukocyte 12/15-lipoxygenase (Sus scrofa, UniProt P16469); assay: 12/15-Lipoxygenase enzyme assay; type: biochemical; conditions: 70 μM arachidonic acid, pH 7.4, 10 minute incubation; read-out: IC50, inhibition of 12/15-Lipoxygenase
T1 construct: purchased Cayman 60300
T1 sequence (P16469 1-663): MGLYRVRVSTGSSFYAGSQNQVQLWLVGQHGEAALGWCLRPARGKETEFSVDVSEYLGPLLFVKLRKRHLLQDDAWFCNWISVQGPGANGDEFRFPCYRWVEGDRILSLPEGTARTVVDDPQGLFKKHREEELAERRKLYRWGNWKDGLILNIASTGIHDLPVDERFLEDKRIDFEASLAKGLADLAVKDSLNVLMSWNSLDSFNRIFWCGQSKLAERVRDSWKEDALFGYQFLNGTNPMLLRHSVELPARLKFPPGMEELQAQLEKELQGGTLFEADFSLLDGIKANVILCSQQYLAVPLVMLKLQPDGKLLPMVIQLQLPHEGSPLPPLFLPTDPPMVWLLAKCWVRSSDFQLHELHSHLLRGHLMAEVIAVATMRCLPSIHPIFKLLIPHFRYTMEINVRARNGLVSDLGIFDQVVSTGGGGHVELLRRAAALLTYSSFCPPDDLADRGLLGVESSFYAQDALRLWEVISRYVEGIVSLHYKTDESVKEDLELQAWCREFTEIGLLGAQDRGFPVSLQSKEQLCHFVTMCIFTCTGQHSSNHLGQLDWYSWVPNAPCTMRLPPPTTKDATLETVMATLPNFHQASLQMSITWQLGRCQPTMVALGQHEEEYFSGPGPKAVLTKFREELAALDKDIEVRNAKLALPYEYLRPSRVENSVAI
Excerpt: In vitro evaluation of the ability of a composition to inhibit the enzymes 5-lipoxygenase, 15-lipoxygenase, or 12/15 lipoxygenase as described in Walidge, N. B. et al Anal. Biochem., 231: 354-358 (1995) using a high throughput colorimetric method; as well as in vitro evaluation of inhibiting LTB4 is described in Examples.
This procedure was used for measuring the enzymatic activity of porcine leukocyte 12/15-lipoxygenase using a colorimetric method based on the ferric oxidation of xylenol orange.
• 96 well flat bottom microfilter plates (VWR, Catalog #62402-933 9295) • Lipoxygenase screening assay buffer (Cayman, Catalog #760710) • Porcine leukocyte 12/15-lipoxygenase (Cayman, Catalog #60300) • Arachidonic Acid (Sigma, Catalog #A3555) • Xylenol orange tetrasodium salt (Aldrich, Catalog #227854) • Iron (II) sulfate heptahydrate (Sigma, Catalog #F7002) • Sulfuric acid (95-98%) [18M] • Methanol Procedure
Porcine Leukocyte 12/15-lipoxygenase (Cayman Cat #60300) was used in this assay. Test compound and/or vehicle was added to 1.3 U 12/15-lipoxygenase in 50 mM Tris-HCl buffer, pH 7.4. The reaction was initiated by addition of 70 μM arachidonic acid in Tris-HCl buffer, pH 7.4, and terminated after a 10 minute incubation at room temperature by addition of FOX reagent (25 mM sulphuric acid, 100 μM xylenol orange, 100 μM iron (II) sulphate, methanol:water 9:1). The yellow color of acidified xylenol orange was converted to a blue color by the lipid hydroperoxide-mediated oxidation of Fe 2+ ions and the interaction of the resulting Fe 3+ ions with the dye. The complex was allowed to form during a 1 hour incubation at room temperature with shaking. Absorbance of the Fe 3+ complex was then measured at […] using a spectrophotometer.
Negative controls contained enzyme during the incubation step but substrate was not added until after the FOX reagent.
Compounds are screened at 5 concentrations in triplicate starting at 10 μM

Question: Which IC50 does the source give for `COC(=O)c1ccc(-c2c(O)c(C)c(C)c3c2CCC(C)(C)O3)cc1` [4-(6-Hydroxy-2,2,7,8-tetramethyl-chroman-5-yl)-benzoic acid methyl ester] here?
Answer: < 1000 nM

Question: How did the IC50 turn out when `C=CCSCc1c(O)c(C)c(C)c2c1CCC(C)(C)O2` [5-Allylsulfanylmethyl-2,2,7,8-tetramethyl-chroman-6-ol] was run?
Answer: < 1000 nM

Question: For `Cc1c(C)c2c(c(C)c1O)CCC(C)(C=C(Br)Br)O2` (stereo not drawn) [2-(2,2-Dibromo-vinyl)-2,5,7,8-tetramethyl-chroman-6-ol], which IC50 is on record?
Answer: < 1000 nM

system: FRDA fibroblasts; assay: FRDA fibroblast assay for protection from oxidative stress (BSO); type: cell-based; conditions: Homo sapiens, preincubation 24 h before 1 mM BSO, read-out: EC50, reduced cell death in FRDA fibroblasts compared to untreated FRDA fibroblasts
Excerpt: A cellular assay using FRDA-patient derived fibroblasts (as described by Jauslin, M L et al, Human Molecular Genetics 11; 3055-3063 (2002)); was used to determine the protective effects of the test compounds by analyzing survival of dermal fibroblasts taken from FRDA patients and unaffected normal donors under conditions of partial GSH depletion. Exposure of FRDA fibroblasts to BSO (L-buthionine (S,R)-sulfoximine) under conditions of restricted selenium causes depletion of cellular glutathione (GSH) and severe plasma membrane damage leading to cell death. Preincubation with the test compounds before the addition of BSO was used to determine if they could protect FRDA cells from BSO-mediated cell death.
Primary fibroblasts were derived from donors with a molecular diagnosis of FRDA and control donors with no mitochondria) disease. Lines F2, C2 and C3 were obtained from Coriell Cell Repositories (Camden, N.J., USA; catalog nos GM04078, GM 08402 and GM08399, respectively). All cell types were diagnosed at the molecular level for intronic GAA triplet repeat length in the frataxin gene using a PCR-based method, according to methods known in the art. […] The cells were seeded in 96-well plates at a density of 4000 cells per 100 pI in growth medium consisting of 25% (v/v) M199 EBS and 64% (v/v) MEM EBS without phenol red (Bioconcept, Allschwil, Switzerland) supplemented with 10% (v/v) fetal calf serum (PAA Laboratories, Linz, Austria), 100 U/ml penicillin, 100 μg/ml streptomycin (PAA Laboratories, Linz, Austria), 10 μg/ml insulin (Sigma, Buchs, Switzerland), 10 ng/ml EGF (Sigma, Buchs, Switzerland), 10 ng/ml bFGF (PreproTech, Rocky Hill, N.J., USA) and 2 mM glutamine (Sigma, Buchs, Switzerland). The cells were incubated in the presence of the various test compounds for 24 h before addition of 1 mM BSO (L-buthionine (S,R)-sulfoximine).
Cell viability was measured after the first signs of toxicity appeared in the BSO-treated controls (typically after 16-48 h). The cells were stained for 60 min at room temperature in PBS with 1.2 μm calceinAM and 4 pm ethidium homodimer (Live/Dead assay, Molecular Probes, Eugene, Oreg., USA). Fluorescence intensity was measured with a Gemini Spectramax XS spectrofluorimeter (Molecular Devices, Sunnyvale, Calif., USA) using excitation and emission wavelengths of 485 and 525 nm, respectively.

Question: For `Cc1c(O)cc2c(c1C)OC(C)(CC/C=C1\SC(=O)NC1=O)CC2` (stereo not drawn) [5-[3-(6-Hydroxy-2,7,8-trimethyl-chroman-2-yl)-propylidene]-thiazolidine-2,4-dione], which EC50 is on record?
Answer: 10 to 6000 nM

Question: Which EC50 does the source give for `C=CCSCc1c(O)c(C)c(C)c2c1CCC(C)(C)O2` [5-Allylsulfanylmethyl-2,2,7,8-tetramethyl-chroman-6-ol] here?
Answer: 10 to 6000 nM

Question: For `CC1=NN(c2ccccc2)C(=O)C1C(CCC1(C)CCc2cc(O)c(C)c(C)c2O1)C1C(=O)N(c2ccccc2)N=C1C` (stereo not drawn) [1-(6-Hydroxy-2,7,8-trimethyl-chroman-2-yl)-3-bis-(5-methyl-2-phenyl-2,4-dihydro-pyrazol-3-one-4-yl)-propane], which EC50 is on record?
Answer: 10 to 6000 nM
